Among the data in ChEMBL document CHEMBL4396936 (Bioorg Med Chem Lett, 2019) are Kd and inhibition values, retold here.

The target of experiment [1] is T1, Indoleamine 2,3-dioxygenase 1 (Homo sapiens, UniProt P14902). The experiment can be described thus: Binding affinity to recombinant ferric state of IDO1 (unknown origin) expressed in Escherichia coli assessed as dissociation constant incubated for 30 mins by UV-Visible spectrophotometric method.
Target sequence in this assay (P14902 whole entry): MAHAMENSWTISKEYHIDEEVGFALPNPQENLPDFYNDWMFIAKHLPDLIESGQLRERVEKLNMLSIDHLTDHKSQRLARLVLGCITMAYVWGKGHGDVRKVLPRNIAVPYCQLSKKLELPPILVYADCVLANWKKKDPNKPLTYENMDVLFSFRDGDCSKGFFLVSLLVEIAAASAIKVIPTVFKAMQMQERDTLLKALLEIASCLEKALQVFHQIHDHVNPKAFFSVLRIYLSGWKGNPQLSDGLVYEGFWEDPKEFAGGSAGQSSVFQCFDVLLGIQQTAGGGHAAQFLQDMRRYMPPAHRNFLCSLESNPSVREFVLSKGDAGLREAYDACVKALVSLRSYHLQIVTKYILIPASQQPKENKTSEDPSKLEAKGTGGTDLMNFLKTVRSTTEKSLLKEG
Experiment [2] concerns the target T1, Indoleamine 2,3-dioxygenase 1. The experiment can be described thus: Inhibition of recombinant IDO1 (unknown origin) expressed in Escherichia coli at 10 uM incubated for 30 mins by methylene blue dye based UV-Visible spectrophotometric method relative to control.
Target sequence in this assay (P14902 whole entry, looked up): as the sequence (P14902 whole entry) above
Experiment [3] has the same target. The experiment in a line: Binding affinity to recombinant ferrous state of IDO1 (unknown origin) expressed in Escherichia coli assessed as dissociation constant incubated for 30 mins by UV-Visible spectrophotometric method.
Target sequence in this assay (P14902 whole entry): as above
In experiment [4] the test system is Indoleamine 2,3-dioxygenase 1 (Homo sapiens), P14902 [C129Y]. The experiment can be described thus: Inhibition of recombinant IDO1 C129Y mutant (unknown origin) expressed in Escherichia coli at 10 uM incubated for 30 mins by methylene blue dye based UV-Visible spectrophotometric method relative to control.
Sequence of Indoleamine 2,3-dioxygenase 1 (Homo sapiens), P14902 [C129Y] (P14902 whole entry C129Y): as the sequence (P14902 whole entry) above, with C129Y counted along it
Experiment [5] has as its target Indoleamine 2,3-dioxygenase 1 (Homo sapiens, UniProt P14902, C129Y). The experiment can be described thus: Binding affinity to recombinant ferrous state of IDO1 C129Y mutant (unknown origin) expressed in Escherichia coli assessed as dissociation constant incubated for 30 mins by UV-Visible spectrophotometric method.

Sequence of Indoleamine 2,3-dioxygenase 1 (Homo sapiens, UniProt P14902, C129Y) (P14902 whole entry C129Y): as the sequence (P14902 whole entry) above, with C129Y counted along it

One may read the Kd as the concentration at which binding is half-saturated. For orientation: inhibition means the drop in the measured response relative to a control, in per cent. Consider `Cc1cc([Si](C)(C)C)c2cn[nH]c2c1`, for which the Kd in experiment [1] came out at 2.5 µM; in experiment [3] it was 1.7 µM. Further, the inhibition in experiment [2] was determined as 50%.
For `C[Si](C)(C)c1cccc2[nH]ncc12`, in that order: 150 µM, 43 µM and 7.2%.
In the case of `c1ccc2[nH]ncc2c1`, the inhibition in experiment [2] is 1%.
On to `OC(Cc1ccccc1)c1cc(C2CC2)cc2[nH]ncc12` (racemic), for which the inhibition stood at 20% in experiment [4] and 62% in experiment [2]. In addition, the Kd in experiment [5] was 28 µM; in experiment [3], 1.2 µM.
As for `OC(Cc1ccccc1)c1cc(-c2ccccc2)cc2[nH]ncc12` (racemic), the inhibition in experiment [4] is 14%; in experiment [2] it was 4%. Moreover, the Kd in experiment [3] is 53 µM.
For the compound `OC(Cc1ccccc1)c1cc(Br)cc2[nH]ncc12` (racemic), the Kd is 0.6 µM in experiment [1], 2.2 µM in experiment [5] and 0.14 µM in experiment [3]. Further, the figures for the inhibition in experiment [4] and in experiment [2] were 23% and 90%, respectively.
For the compound `CCc1cc(C(O)Cc2ccccc2)c2cn[nH]c2c1` (racemic), the Kd in experiment [1] was 1.1 µM; in experiment [5], 44 µM; in experiment [3], 0.74 µM. The inhibition in experiment [4] was 18%; in experiment [2] it was 70%.
Consider `OC(Cc1ccccc1)c1cccc2[nH]ncc12` (racemic), for which the Kd in experiment [1] worked out at 31 µM; in experiment [5], 66 µM; in experiment [3] it was 7.9 µM. The inhibition in experiment [4] was determined as 14%; in experiment [2], 13%.
As to `C#Cc1cc(C(O)Cc2ccccc2)c2cn[nH]c2c1` (racemic), the values for the Kd in experiment [1], in experiment [5] and in experiment [3] were 7.4 µM, 94 µM and 1.3 µM, respectively. Also, the inhibition amounted to 12% in experiment [4] and 32% in experiment [2].
For `Cc1cc(C(O)Cc2ccccc2)c2cn[nH]c2c1` (racemic), in that order: 1.2 µM, 27 µM, 0.47 µM, 18% and 76%.
